“Also recorded” adds a separate entry of the source.
Experiments:
[1] = in the body; no species or test given; cited from earlier work
[2] = test system: HCT116 colorectal carcinoma xenograft; assay: Anti-tumoral efficacy in the HCT116 colorectal carcinoma xenograft model (tumor volume); type: in vivo, female NCr nu/nu mice; details: intraperitoneal, 45 mg/kg or 1.7 mg/kg qd x 21, both high and low dose
Experimental: Purpose: To determine the anti-tumoral efficacy of [6R]-methylene-THF in the HCT116 colorectal carcinoma xenograft model. The HCT116 colorectal carcinoma cell line is sensitive to 5-FU and its analog capecitabine.
(§1) Study design: A total of 30 female NCr nu/nu mice (10 per group) at the age of 8-12 weeks were injected with 5×10^6 HCT116 tumor cells in 0% Matrigel sc in flank. When the tumors reached an average size of […] they were administered with intraperitoneal injections of vehicle or [6R]-methylene-THF (Modufolin®), according to the schedule in table 1. Animals were monitored individually. The endpoint of the experiment was when a tumor weight of 1300 mm3 or 65 days was reached, whichever came first. Responders could be followed longer. When the endpoint was reached, the animals were euthanized. Body weight (bw) (g) and tumor volume (mm3) was measured on days 1, 2 (bw only), 3 (bw only), 4, 5 (bw only), 7, 11, 14, 18, 21, 25, 28, 32, 35, 39, 42, 49, 53, 56, 60 and 63.

[3] = Body weight development / tolerability in the HCT116 xenograft study; type: in vivo, female NCr nu/nu mice; details: intraperitoneal
Experimental: as §1
Body weight gives an indication on how severe the side effects of the treatment are, poor development of body weight indicating more adverse side effects.

| Structure (SMILES) | half life [1] | anti-tumor activity (mean tumor volume over time compared to control) [2] | effect on animal weight ([3]; high-dose (45 mg/kg, qd x 21)) | body weight development compared to the vehicle group ([3]; qd x 21, both dose groups overall) | effect on animal weight ([3]; low-dose (1.7 mg/kg, qd x 21)) |
| --- | --- | --- | --- | --- | --- |
| CN1c2c(nc(N)[nH]c2=O)NCC1CNc1ccc(C(=O)N[C@@H](CCC(=O)O)C(=O)O)cc1 (stereo partly shown) [methyl-THF, 5-methyl-tetrahydrofolic acid] | approximately 5 hours |  |  |  |  |
| Nc1nc2c(c(=O)[nH]1)NC(CNc1ccc(C(=O)N[C@@H](CCC(=O)O)C(=O)O)cc1)CN2 (stereo partly shown) [THF, tetrahydrofolic acid] | approximately 30 min |  |  |  |  |
| Nc1nc2c(c(=O)[nH]1)N1CN(c3ccc(C(=O)N[C@@H](CCC(=O)O)C(=O)O)cc3)C[C@H]1CN2 [[6R]-methylene-THF, [6R]-5,10-methylenetetrahydrofolic acid] |  | marked influence on tumor volume; also recorded: intrinsic antitumor activity | in line with the vehicle group | slightly positive body weight development | positive effect on animal weight |
| Nc1nc2c(c(=O)[nH]1)N1CN(c3ccc(C(=O)N[C@@H](CCC(=O)O)C(=O)O)cc3)CC1CN2 (stereo partly shown) [methylene-THF, 5,10-methylene-tetrahydrofolic acid] | approximately 20 min |  |  |  |  |

— patent US20150018361A1, “ANTI-TUMOR ACTIVITY OF REDUCED FOLATES LIKE METHYLENE-TETRAHYDROFOLATE” (ISOFOL MEDICAL AB, priority 2012, published 2015)
